Test results: the supplement of paper PMC10307832

Assays:
Test in all cases: relative viability (nuclei count vs DMSO), 5 days (fraction); higher = more cells survive
COR-L23 = system: COR-L23
Method in brief: (§1)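 Lung cancer cell lines were pin-tool dosed in 1536-well plates on the day after seeding, with either a lone drug or a fixed anchor-drug dose plus five library-drug doses (not always all listed) in √10 steps. Nuclei were counted on 4× images after 5 days. Relative viability is the ratio of treated-well to vehicle-well nuclei counts, with each value a median of duplicate plates.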

201T = system: 201T
Method in brief: as §1

NCI-H23 = system: NCI-H23
Method in brief: as §1

HARA = system: HARA
Method in brief: as §1

NCI-H1792 = system: NCI-H1792
Method in brief: as §1

HCC-15 = system: HCC-15
Method in brief: as §1

NCI-H596 = system: NCI-H596
Method in brief: as §1

NCI-H650 = system: NCI-H650
Method in brief: as §1

HCC-44 = system: HCC-44
Method in brief: as §1

SK-MES-1 = system: SK-MES-1
Method in brief: as §1

A-427 = system: A-427
Method in brief: as §1

EKVX = system: EKVX
Method in brief: as §1

NCI-H1437 = system: NCI-H1437
Method in brief: as §1

NCI-H441 = system: NCI-H441
Method in brief: as §1

NCI-H838 = system: NCI-H838
Method in brief: as §1

NCI-H1975 = system: NCI-H1975
Method in brief: as §1

NCI-H358 = system: NCI-H358
Method in brief: as §1

BEN = system: BEN
Method in brief: as §1

HCC-827 = system: HCC-827
Method in brief: as §1

With `Cc1sc2c(c1C)C(c1ccc(Cl)cc1)=N[C@@H](CC(=O)OC(C)(C)C)c1nnc(C)n1-2` [JQ1] + Cc1nc(NC(=O)N2CCC[C@H]2C(N)=O)sc1-c1ccnc(C(C)(C)C(F)(F)F)c1 [Alpelisib] (partner 2 µM) the relative viability (COR-L23; first compound 0.04 µM) was 0.814, the relative viability (COR-L23; first compound 0.1265 µM) was 0.708 and the relative viability (COR-L23; first compound 0.4 µM) was 0.754. The relative viability (COR-L23; first compound 1.265 µM) was 0.36, the relative viability (COR-L23; first compound 4 µM) was 0.21 and the relative viability (201T; first compound 0.04 µM) was 1.02. It also gave a relative viability (201T; first compound 0.1265 µM) of 0.926, a relative viability (201T; first compound 0.4 µM) of 0.939 and a relative viability (201T; first compound 1.265 µM) of 0.715. The relative viability (201T; first compound 4 µM) was 0.567, the relative viability (NCI-H23; first compound 0.04 µM) was 0.62 and the relative viability (NCI-H23; first compound 0.1265 µM) was 0.726. For the same molecule, the relative viability (NCI-H23; first compound 0.4 µM) was 0.454, the relative viability (NCI-H23; first compound 1.265 µM) was 0.292 and the relative viability (NCI-H23; first compound 4 µM) was 0.297. The relative viability (HARA; first compound 0.04 µM) was 0.915, the relative viability (HARA; first compound 0.1265 µM) was 0.598 and the relative viability (HARA; first compound 0.4 µM) was 0.283. The relative viability (HARA; first compound 1.265 µM) was 0.266, the relative viability (HARA; first compound 4 µM) was 0.156 and the relative viability (NCI-H1792; first compound 0.04 µM) was 0.702. It also gave a relative viability (NCI-H1792; first compound 0.4 µM) of 0.722, a relative viability (NCI-H1792; first compound 1.265 µM) of 0.411 and a relative viability (NCI-H1792; first compound 4 µM) of 0.364. The relative viability (HCC-15; first compound 0.04 µM) was 0.806, the relative viability (HCC-15; first compound 0.4 µM) was 0.768 and the relative viability (HCC-15; first compound 1.265 µM) was 0.417. For the same molecule, the relative viability (HCC-15; first compound 4 µM) was 0.449, the relative viability (NCI-H596; first compound 0.04 µM) was 0.481 and the relative viability (NCI-H596; first compound 0.1265 µM) was 0.499. For the same molecule, the relative viability (NCI-H596; first compound 0.4 µM) was 0.437, the relative viability (NCI-H596; first compound 1.265 µM) was 0.41 and the relative viability (NCI-H596; first compound 4 µM) was 0.343. For the same molecule, the relative viability (NCI-H650; first compound 0.04 µM) was 1.11, the relative viability (NCI-H650; first compound 0.1265 µM) was 0.715 and the relative viability (NCI-H650; first compound 0.4 µM) was 0.707. For the same molecule, the relative viability (NCI-H650; first compound 1.265 µM) was 0.377, the relative viability (NCI-H650; first compound 4 µM) was 0.257 and the relative viability (HCC-44; first compound 0.04 µM) was 0.809. The relative viability (HCC-44; first compound 0.1265 µM) was 0.518, the relative viability (HCC-44; first compound 0.4 µM) was 0.37 and the relative viability (HCC-44; first compound 1.265 µM) was 0.251. For the same molecule, the relative viability (HCC-44; first compound 4 µM) was 0.238, the relative viability (SK-MES-1; first compound 0.04 µM) was 0.769 and the relative viability (SK-MES-1; first compound 0.1265 µM) was 0.68. The relative viability (SK-MES-1; first compound 0.4 µM) was 0.733, the relative viability (SK-MES-1; first compound 1.265 µM) was 0.456 and the relative viability (SK-MES-1; first compound 4 µM) was 0.27. The relative viability (A-427; first compound 0.04 µM) was 1.15, the relative viability (A-427; first compound 0.1265 µM) was 1.05 and the relative viability (A-427; first compound 0.4 µM) was 1.11. It also gave a relative viability (A-427; first compound 1.265 µM) of 0.967, a relative viability (A-427; first compound 4 µM) of 0.731 and a relative viability (EKVX; first compound 0.04 µM) of 0.834. It also gave a relative viability (EKVX; first compound 0.1265 µM) of 0.8, a relative viability (EKVX; first compound 0.4 µM) of 0.688 and a relative viability (EKVX; first compound 1.265 µM) of 0.729. It also gave a relative viability (EKVX; first compound 4 µM) of 0.664, a relative viability (NCI-H1437; first compound 0.04 µM) of 0.871 and a relative viability (NCI-H1437; first compound 0.1265 µM) of 0.803. For the same molecule, the relative viability (NCI-H1437; first compound 0.4 µM) was 0.515, the relative viability (NCI-H1437; first compound 1.265 µM) was 0.284 and the relative viability (NCI-H1437; first compound 4 µM) was 0.216. For the same molecule, the relative viability (NCI-H441; first compound 0.04 µM) was 0.772, the relative viability (NCI-H441; first compound 0.1265 µM) was 0.958 and the relative viability (NCI-H441; first compound 0.4 µM) was 0.692. It also gave a relative viability (NCI-H441; first compound 1.265 µM) of 0.294, a relative viability (NCI-H441; first compound 4 µM) of 0.444 and a relative viability (NCI-H838; first compound 0.04 µM) of 1.03. It also gave a relative viability (NCI-H838; first compound 0.1265 µM) of 0.698, a relative viability (NCI-H838; first compound 0.4 µM) of 0.882 and a relative viability (NCI-H838; first compound 1.265 µM) of 0.291. The relative viability (NCI-H838; first compound 4 µM) was 0.263, the relative viability (NCI-H1975; first compound 0.04 µM) was 0.662 and the relative viability (NCI-H1975; first compound 0.1265 µM) was 0.424. For the same molecule, the relative viability (NCI-H1975; first compound 0.4 µM) was 0.578, the relative viability (NCI-H1975; first compound 1.265 µM) was 0.348 and the relative viability (NCI-H1975; first compound 4 µM) was 0.335. The relative viability (NCI-H358; first compound 0.04 µM) was 0.761, the relative viability (NCI-H358; first compound 0.1265 µM) was 1.05 and the relative viability (NCI-H358; first compound 0.4 µM) was 0.93. The relative viability (NCI-H358; first compound 1.265 µM) was 0.515, the relative viability (NCI-H358; first compound 4 µM) was 0.527 and the relative viability (BEN; first compound 0.04 µM) was 0.953. It also gave a relative viability (BEN; first compound 0.1265 µM) of 0.918, a relative viability (BEN; first compound 0.4 µM) of 0.594 and a relative viability (BEN; first compound 1.265 µM) of 0.332. The relative viability (BEN; first compound 4 µM) was 0.273, the relative viability (HCC-827; first compound 0.04 µM) was 0.929 and the relative viability (HCC-827; first compound 0.4 µM) was 0.672. It also gave a relative viability (HCC-827; first compound 1.265 µM) of 1.07 and a relative viability (HCC-827; first compound 4 µM) of 1.11.
